Results from ChEMBL document CHEMBL4507268 (2021).

Experiments:
Details in all cases: Compound concentration 1.0 uM
[1] = molecular target: Non-receptor tyrosine-protein kinase TYK2 (Homo sapiens) (UniProt P29597)
[2] = molecular target: Ribosomal protein S6 kinase alpha-2 (Homo sapiens) (UniProt Q15349)
[3] = molecular target: Ribosomal protein S6 kinase beta-1 (Homo sapiens) (UniProt P23443)
[4] = molecular target: T1, Myosin-IIIb (Homo sapiens) (UniProt Q8WXR4)
T1 sequence (whole entry): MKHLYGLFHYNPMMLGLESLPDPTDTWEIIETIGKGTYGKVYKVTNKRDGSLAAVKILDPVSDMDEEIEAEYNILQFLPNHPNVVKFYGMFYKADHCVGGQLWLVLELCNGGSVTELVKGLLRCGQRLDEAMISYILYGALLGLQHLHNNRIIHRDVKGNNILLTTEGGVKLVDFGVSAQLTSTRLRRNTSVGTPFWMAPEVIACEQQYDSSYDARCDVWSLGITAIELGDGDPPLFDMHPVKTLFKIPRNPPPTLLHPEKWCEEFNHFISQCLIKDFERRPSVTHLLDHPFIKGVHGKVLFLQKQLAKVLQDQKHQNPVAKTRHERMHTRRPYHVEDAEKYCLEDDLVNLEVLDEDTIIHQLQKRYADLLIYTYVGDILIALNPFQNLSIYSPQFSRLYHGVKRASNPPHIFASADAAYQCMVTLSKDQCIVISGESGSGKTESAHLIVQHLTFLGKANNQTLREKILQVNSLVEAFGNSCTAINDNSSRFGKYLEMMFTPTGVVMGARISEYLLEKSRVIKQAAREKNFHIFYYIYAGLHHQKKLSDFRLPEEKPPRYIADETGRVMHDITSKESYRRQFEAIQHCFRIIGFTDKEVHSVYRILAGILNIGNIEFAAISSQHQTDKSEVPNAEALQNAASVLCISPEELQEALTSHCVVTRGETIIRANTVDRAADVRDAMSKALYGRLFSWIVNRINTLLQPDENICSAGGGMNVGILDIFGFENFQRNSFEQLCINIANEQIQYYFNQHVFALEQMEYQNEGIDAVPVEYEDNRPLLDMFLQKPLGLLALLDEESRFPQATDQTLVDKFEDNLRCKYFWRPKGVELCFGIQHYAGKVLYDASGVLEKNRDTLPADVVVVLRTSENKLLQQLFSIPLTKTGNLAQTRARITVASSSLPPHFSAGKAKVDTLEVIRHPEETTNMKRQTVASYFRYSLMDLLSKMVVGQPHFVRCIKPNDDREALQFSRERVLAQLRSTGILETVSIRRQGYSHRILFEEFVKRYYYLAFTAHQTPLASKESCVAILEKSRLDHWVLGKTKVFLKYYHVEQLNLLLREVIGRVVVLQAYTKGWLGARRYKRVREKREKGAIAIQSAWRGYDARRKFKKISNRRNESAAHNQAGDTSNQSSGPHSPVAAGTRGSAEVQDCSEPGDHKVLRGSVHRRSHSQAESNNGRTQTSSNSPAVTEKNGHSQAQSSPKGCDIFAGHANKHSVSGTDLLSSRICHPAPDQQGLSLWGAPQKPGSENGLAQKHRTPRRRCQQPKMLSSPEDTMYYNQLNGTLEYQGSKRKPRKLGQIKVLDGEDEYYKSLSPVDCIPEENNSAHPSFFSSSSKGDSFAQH

[5] = molecular target: T2, Serine/threonine-protein kinase D3 (Homo sapiens) (UniProt O94806)
T2 sequence (whole entry): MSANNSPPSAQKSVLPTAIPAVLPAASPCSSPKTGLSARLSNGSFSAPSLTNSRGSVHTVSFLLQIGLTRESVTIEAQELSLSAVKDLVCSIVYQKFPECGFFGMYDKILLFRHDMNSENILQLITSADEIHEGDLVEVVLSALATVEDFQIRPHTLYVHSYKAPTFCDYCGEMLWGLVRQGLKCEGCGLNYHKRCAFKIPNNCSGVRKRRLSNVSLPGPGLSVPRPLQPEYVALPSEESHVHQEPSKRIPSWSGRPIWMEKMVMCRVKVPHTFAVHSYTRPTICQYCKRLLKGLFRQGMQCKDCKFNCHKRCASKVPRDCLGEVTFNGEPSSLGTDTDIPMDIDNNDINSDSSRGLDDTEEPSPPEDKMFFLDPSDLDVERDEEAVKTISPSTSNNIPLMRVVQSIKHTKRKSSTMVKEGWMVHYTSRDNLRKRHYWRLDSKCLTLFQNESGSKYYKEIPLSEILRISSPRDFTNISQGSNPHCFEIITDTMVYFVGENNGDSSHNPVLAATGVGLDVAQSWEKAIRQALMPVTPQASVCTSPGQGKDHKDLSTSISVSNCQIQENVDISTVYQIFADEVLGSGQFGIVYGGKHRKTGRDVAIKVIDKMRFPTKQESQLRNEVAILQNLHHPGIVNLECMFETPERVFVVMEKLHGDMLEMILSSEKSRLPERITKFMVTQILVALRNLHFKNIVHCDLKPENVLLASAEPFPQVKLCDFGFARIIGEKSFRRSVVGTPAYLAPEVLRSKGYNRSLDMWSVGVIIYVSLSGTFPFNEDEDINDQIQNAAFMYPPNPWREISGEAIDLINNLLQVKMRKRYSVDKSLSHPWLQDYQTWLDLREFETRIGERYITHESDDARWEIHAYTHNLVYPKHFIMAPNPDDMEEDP

[6] = molecular target: T3, Beta-adrenergic receptor kinase 1 (Homo sapiens) (UniProt P25098)
T3 sequence (whole entry): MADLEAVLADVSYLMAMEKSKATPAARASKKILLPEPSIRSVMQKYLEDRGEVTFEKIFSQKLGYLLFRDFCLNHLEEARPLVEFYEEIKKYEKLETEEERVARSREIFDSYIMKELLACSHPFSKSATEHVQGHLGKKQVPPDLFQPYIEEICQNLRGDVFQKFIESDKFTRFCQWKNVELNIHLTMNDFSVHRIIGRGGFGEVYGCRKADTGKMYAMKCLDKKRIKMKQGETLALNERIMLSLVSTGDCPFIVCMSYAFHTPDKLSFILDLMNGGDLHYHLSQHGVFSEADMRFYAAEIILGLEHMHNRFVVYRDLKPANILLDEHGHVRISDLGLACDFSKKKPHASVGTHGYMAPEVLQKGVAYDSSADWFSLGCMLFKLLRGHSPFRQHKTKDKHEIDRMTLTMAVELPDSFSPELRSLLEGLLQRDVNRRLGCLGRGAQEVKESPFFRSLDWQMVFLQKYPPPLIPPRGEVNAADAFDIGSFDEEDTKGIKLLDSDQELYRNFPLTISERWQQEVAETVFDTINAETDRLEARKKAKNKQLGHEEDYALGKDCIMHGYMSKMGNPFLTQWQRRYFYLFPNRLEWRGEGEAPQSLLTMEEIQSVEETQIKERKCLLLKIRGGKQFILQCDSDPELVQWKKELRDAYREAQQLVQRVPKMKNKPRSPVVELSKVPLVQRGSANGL

Measured: % residual kinase activity

Chain of Ribosomal protein S6 kinase beta-1 (Homo sapiens) (P23443 whole entry, looked up): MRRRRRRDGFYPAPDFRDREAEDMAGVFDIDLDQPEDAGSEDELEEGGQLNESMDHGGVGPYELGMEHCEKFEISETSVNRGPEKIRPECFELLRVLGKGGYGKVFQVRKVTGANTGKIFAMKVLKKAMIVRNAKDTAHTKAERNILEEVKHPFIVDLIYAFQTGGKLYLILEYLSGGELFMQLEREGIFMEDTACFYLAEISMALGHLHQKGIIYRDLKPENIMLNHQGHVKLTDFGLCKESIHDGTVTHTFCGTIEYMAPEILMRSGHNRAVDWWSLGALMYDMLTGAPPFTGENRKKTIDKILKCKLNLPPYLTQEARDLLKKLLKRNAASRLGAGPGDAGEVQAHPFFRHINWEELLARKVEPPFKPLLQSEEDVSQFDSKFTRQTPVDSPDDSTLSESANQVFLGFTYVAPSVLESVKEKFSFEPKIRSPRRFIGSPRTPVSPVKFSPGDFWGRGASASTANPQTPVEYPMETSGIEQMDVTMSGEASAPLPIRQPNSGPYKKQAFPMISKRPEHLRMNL
Chain of Ribosomal protein S6 kinase alpha-2 (Homo sapiens) (Q15349 whole entry): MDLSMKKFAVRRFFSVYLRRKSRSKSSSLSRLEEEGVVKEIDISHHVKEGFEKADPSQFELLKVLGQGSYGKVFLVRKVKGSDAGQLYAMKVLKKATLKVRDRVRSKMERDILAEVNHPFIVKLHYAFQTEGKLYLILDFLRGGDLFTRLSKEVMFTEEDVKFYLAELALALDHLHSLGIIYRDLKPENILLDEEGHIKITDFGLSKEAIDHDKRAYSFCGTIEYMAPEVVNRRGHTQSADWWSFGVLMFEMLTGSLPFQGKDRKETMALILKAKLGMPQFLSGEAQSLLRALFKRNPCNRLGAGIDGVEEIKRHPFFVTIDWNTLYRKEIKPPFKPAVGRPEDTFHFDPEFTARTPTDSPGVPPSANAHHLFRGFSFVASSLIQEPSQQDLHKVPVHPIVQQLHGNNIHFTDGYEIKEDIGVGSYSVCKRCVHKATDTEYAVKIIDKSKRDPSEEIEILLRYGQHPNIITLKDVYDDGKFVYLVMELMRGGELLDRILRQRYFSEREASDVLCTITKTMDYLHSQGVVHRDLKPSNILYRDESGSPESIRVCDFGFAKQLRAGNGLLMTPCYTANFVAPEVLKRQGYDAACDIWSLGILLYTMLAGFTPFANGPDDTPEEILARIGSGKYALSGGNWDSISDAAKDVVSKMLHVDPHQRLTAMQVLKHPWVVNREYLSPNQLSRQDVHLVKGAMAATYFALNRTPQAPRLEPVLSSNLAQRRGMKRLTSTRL
Chain of Non-receptor tyrosine-protein kinase TYK2 (Homo sapiens) (P29597 whole entry): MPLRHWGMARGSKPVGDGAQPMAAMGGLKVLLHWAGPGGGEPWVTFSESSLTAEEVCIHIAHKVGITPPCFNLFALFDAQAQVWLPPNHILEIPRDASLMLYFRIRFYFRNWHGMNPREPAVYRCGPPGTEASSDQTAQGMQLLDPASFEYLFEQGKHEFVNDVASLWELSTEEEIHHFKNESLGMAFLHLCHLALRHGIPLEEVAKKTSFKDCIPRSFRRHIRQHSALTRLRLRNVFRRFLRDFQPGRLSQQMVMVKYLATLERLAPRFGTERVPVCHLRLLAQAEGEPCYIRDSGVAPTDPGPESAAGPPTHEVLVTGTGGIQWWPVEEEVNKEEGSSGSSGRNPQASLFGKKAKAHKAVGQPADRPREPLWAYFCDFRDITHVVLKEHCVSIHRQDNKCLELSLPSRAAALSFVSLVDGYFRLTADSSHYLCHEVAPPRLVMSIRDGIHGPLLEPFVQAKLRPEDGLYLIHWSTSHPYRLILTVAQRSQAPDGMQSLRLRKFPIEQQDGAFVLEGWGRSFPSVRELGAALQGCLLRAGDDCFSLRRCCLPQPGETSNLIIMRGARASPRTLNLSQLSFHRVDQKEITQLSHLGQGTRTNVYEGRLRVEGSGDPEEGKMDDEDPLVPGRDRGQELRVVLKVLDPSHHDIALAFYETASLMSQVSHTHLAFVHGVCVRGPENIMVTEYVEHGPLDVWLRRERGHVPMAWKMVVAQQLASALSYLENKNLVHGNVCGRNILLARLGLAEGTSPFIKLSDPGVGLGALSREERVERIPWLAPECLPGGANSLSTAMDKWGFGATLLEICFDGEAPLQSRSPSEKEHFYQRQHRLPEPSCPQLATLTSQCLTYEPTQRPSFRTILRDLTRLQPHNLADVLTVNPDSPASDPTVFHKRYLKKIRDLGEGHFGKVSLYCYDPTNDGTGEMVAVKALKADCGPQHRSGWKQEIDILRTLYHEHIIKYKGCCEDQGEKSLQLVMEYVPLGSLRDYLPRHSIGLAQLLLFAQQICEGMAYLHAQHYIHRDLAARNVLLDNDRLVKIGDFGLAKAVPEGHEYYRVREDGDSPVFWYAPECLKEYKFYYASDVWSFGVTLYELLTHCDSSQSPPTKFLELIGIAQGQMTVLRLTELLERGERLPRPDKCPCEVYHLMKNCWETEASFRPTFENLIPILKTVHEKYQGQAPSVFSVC

CN1CCN(c2cnc3c(C4CCN(C(=O)c5ccc(OC(F)(F)F)cc5N)CC4)ncnc3c2)CC1 [BAY-885]
inactive: [1] 110% | [2] 98% | [3] 118% | [4] 111% | [5] 100% | [6] 85%
